# Test results published in US20230146455A1, “TREATMENT OF INFLAMMATORY DISEASES WITH PEPTIDES AND PHARMACEUTICAL COMPOSITIONS” (Yuyu Pharma, Inc., priority 2020, published 2023).
# Where “and” joins values, the source holds several entries; their conditions need not be identical. Equal entries are not always repeated. Where a SMILES comes first, the peptide text is derived from it. [ ]: non-standard residue; d: D form. Hyp = O=C(O)[C@@H]1C[C@@H](O)CN1
# What was measured:
# IL-6 = experiment: Example 9 Luminex, LPS hPBMCs: IL-6; format: cell-based, human; conditions: Bead IL-6, PBMC + LPS(5 ug/ml)
# Experimental: (§1) Treatment Human PBMCs were pretreated with YY-101, YDE-011 and YDE-043 or reference compound; Xiidra® at various concentration (ranging from 1 nM to 100 uM) for 2 h before stimulation. An equal volume of 0.5% DMSO was used as a vehicle control. Then, the cells were treated with LPS at 5 ug/ml. The supernatants from treated cells were harvested at 24 h and placed in a 96 well for Luminex cytokine & chemokine profiling using a Luminex 200 multiplex assay (Luminex; R&D system, USA).
# (§2) The main study arm with triplicate wells per group in a 24-well plate: • 1. Blank • 2. PBMC: 0.5% DMSO • 3. PBMC+LPS (5 ug/ml) • 4. PBMC+YY-101 100 uM • 5. PBMC+YY-101 10 uM • 6. PBMC+YY-101 1 uM • 7. PBMC+YY-101 0.1 uM • 8. PBMC+YY-101 0.01 uM • 9. PBMC+LPS (5 ug/ml)+Xiidra®100 uM • 10. PBMC+LPS (5 ug/ml)+Xiidra® 10 uM • 11. PBMC+LPS (5 ug/ml)+Xiidra® 1 uM • 12. PBMC+LPS (5 ug/ml)+Xiidra®0.1 uM • 13. PBMC+LPS (5 ug/ml)+Xiidra®0.01 uM • 14. PBMC+LPS (5 ug/ml)+Xiidra®0.001 uM • 15. PBMC+LPS (5 ug/ml)+YY-101 100 uM • 16. PBMC+LPS (5 ug/ml)+YY-101 10 uM • 17. PBMC+LPS (5 ug/ml)+YY-101 1 uM • 18. PBMC+LPS (5 ug/ml)+YY-101 0.1 uM • 19. PBMC+LPS (5 ug/ml)+YY-101 0.01 uM • 20. PBMC+LPS (5 ug/ml)+YY-101 0.001 uM • 21. PBMC+LPS (5 ug/ml)+YDE-011 100 uM • 22. PBMC+LPS (5 ug/ml)+YDE-011 10 uM • 23. PBMC+LPS (5 ug/ml)+YDE-011 1 uM • 24. PBMC+LPS (5 ug/ml)+YDE-011 0.1 uM • 25. PBMC+LPS (5 ug/ml)+YDE-011 0.01 uM • 26. PBMC+LPS (5 ug/ml)+YDE-011 0.001 uM • 27. PBMC+LPS (5 ug/ml)+YDE-043 100 uM • 28. PBMC+LPS (5 ug/ml)+YDE-043 10 uM • 29. PBMC+LPS (5 ug/ml)+YDE-043 1 uM • 30. PBMC+LPS (5 ug/ml)+YDE-043 0.1 uM • 31. PBMC+LPS (5 ug/ml)+YDE-043 0.01 uM • 32. PBMC+LPS (5 ug/ml)+YDE-043 0.001 uM
# (§3) Multiplex assay was used to measure 30 cytokines and chemokines. The 1:2, 1:10 and 1:200 diluted cell supernatant and serial dilution of the standard were dispensed into a 96 well plate at 50 ul/well. Then, the pre-mixed cocktail of antibody-coated magnetic beads was dispensed at 50 ul/well and incubated at room temperature for 2 h in a horizontal orbital microplate shaker at 800±500 rpm. The beads were washed using a magnetic device to prevent loss. The biotin-antibody was dispensed in 50 ul of each well and incubated at room temperature for 1 h in a shaker at 800±500 rpm. After washing, streptavidin-PE was added at 50 ul/well and incubated at room temperature for 30 min in a shaker under the same conditions. Finally, after washing, wash buffer (100 ul/well) was added to the plate and incubated in a shaker for 2 min. The Luminex™ 200 setting were set according to the manufacturer's protocol. The data was calculated with a standard five-parameter logistic nonlinear regression analysis of the data (xPonent software 4.2, USA). The levels of cytokine/chemokine are normalized to the live cell counts (1×10^5 cells/mL) and presented as concentrations per mL (pg/mL or ng/mL).
# IL-1 alpha = experiment: Example 9 Luminex, LPS hPBMCs: IL-1 alpha; format: cell-based, human; conditions: IL-1 alpha, replicates and Mean
# Experimental: as §1, §2, §3
# [1] = PBMC + LPS(5 ug/ml) + YDE011 0.001 uM
# [2] = PBMC + LPS(5 ug/ml) + YDE011 0.001 uM, mean
# [3] = PBMC + LPS(5 ug/ml) + YDE011 0.01 uM
# [4] = PBMC + LPS(5 ug/ml) + YDE011 0.01 uM, mean
# [5] = PBMC + LPS(5 ug/ml) + YDE011 0.1 uM
# [6] = PBMC + LPS(5 ug/ml) + YDE011 0.1 uM, mean
# [7] = PBMC + LPS(5 ug/ml) + YDE011 1 uM
# [8] = PBMC + LPS(5 ug/ml) + YDE011 1 uM, mean
# [9] = PBMC + LPS(5 ug/ml) + YDE011 10 uM
# [10] = PBMC + LPS(5 ug/ml) + YDE011 10 uM, mean
# [11] = PBMC + LPS(5 ug/ml) + YDE011 100 uM
# [12] = PBMC + LPS(5 ug/ml) + YDE011 100 uM, mean
smiles,measurement,setting,value
CC(C)C[C@H](NC(=O)CNC(=O)[C@H](CC(C)C)NC(=O)[C@H](CCC(N)=O)NC(=O)CNC(=O)[C@@H]1C[C@@H](O)CN1)C(=O)N[C@@H](C)C(=O)NCC(=O)N1CCC[C@H]1C(=O)N[C@@H](CCCCN)C(=O)O [YDE-011] (H-[Hyp]GQLGLAGPK-OH),Concentration,"IL-6; 0.001 uM, Mean",6729.3 pg/mL
same,MFI,"IL-6; 0.001 uM, Mean",186.6
same,conc/live cell,"IL-6; 0.001 uM, Mean",1268.0 pg/10^5
same,Concentration,"IL-6; 0.001 uM, single replicates",6493.4 pg/mL and 6683.4 pg/mL and 7011.0 pg/mL
same,MFI,"IL-6; 0.001 uM, single replicates",179.8 and 185.3 and 194.8
same,conc/live cell,"IL-6; 0.001 uM, single replicates",1443.0 pg/10^5 and 1152.3 pg/10^5 and 1208.8 pg/10^5
same,Concentration,"IL-6; 0.01 uM, Mean",7097.0 pg/mL
same,MFI,"IL-6; 0.01 uM, Mean",197.3
same,conc/live cell,"IL-6; 0.01 uM, Mean",1218.8 pg/10^5
same,Concentration,"IL-6; 0.01 uM, single replicates",7131.5 pg/mL and 6924.8 pg/mL and 7234.7 pg/mL
same,MFI,"IL-6; 0.01 uM, single replicates",198.3 and 192.3 and 201.3
same,conc/live cell,"IL-6; 0.01 uM, single replicates",1150.2 pg/10^5 and 1357.8 pg/10^5 and 1148.4 pg/10^5
same,Concentration,"IL-6; 0.1 uM, Mean",6700.6 pg/mL
same,MFI,"IL-6; 0.1 uM, Mean",185.8
same,conc/live cell,"IL-6; 0.1 uM, Mean",1180.6 pg/10^5
same,Concentration,"IL-6; 0.1 uM, single replicates",6458.9 pg/mL and 6907.6 pg/mL and 6735.2 pg/mL
same,MFI,"IL-6; 0.1 uM, single replicates",178.8 and 191.8 and 186.8
same,conc/live cell,"IL-6; 0.1 uM, single replicates",978.6 pg/10^5 and 1381.5 pg/10^5 and 1181.6 pg/10^5
same,Concentration,"IL-6; 1 uM, Mean",6838.4 pg/mL
same,MFI,"IL-6; 1 uM, Mean",189.8
same,conc/live cell,"IL-6; 1 uM, Mean",1364.4 pg/10^5
same,Concentration,"IL-6; 1 uM, single replicates",6821.4 pg/mL and 7217.5 pg/mL and 6476.2 pg/mL
same,MFI,"IL-6; 1 uM, single replicates",189.3 and 200.8 and 179.3
same,conc/live cell,"IL-6; 1 uM, single replicates",1240.3 pg/10^5 and 1503.6 pg/10^5 and 1349.2 pg/10^5
same,Concentration,"IL-6; 10 uM, Mean",6769.7 pg/mL
same,MFI,"IL-6; 10 uM, Mean",187.8
same,conc/live cell,"IL-6; 10 uM, Mean",1286.9 pg/10^5
same,Concentration,"IL-6; 10 uM, single replicates",6890.4 pg/mL and 6700.7 pg/mL and 6717.9 pg/mL
same,MFI,"IL-6; 10 uM, single replicates",191.3 and 185.8 and 186.3
same,conc/live cell,"IL-6; 10 uM, single replicates",1276.0 pg/10^5 and 1155.3 pg/10^5 and 1429.3 pg/10^5
same,Concentration,"IL-6; 100 uM, Mean",7572.5 pg/mL
same,MFI,"IL-6; 100 uM, Mean",211.1
same,conc/live cell,"IL-6; 100 uM, Mean",1247.9 pg/10^5
same,Concentration,"IL-6; 100 uM, single replicates",7801.4 pg/mL and 7715.7 pg/mL and 7200.3 pg/mL
same,MFI,"IL-6; 100 uM, single replicates",217.8 and 215.3 and 200.3
same,conc/live cell,"IL-6; 100 uM, single replicates",1278.9 pg/10^5 and 1264.9 pg/10^5 and 1200.1 pg/10^5
same,Concentration,IL-1 alpha; [1],336.1 pg/mL and 335.4 pg/mL and 361.1 pg/mL
same,conc/live cell,IL-1 alpha; [1],74.7 pg/10^5 and 57.8 pg/10^5 and 62.3 pg/10^5
same,Concentration,IL-1 alpha; [2],344.2 pg/mL
same,conc/live cell,IL-1 alpha; [2],64.9 pg/10^5
same,Concentration,IL-1 alpha; [3],359.2 pg/mL and 381.8 pg/mL and 342.8 pg/mL
same,conc/live cell,IL-1 alpha; [3],57.9 pg/10^5 and 74.9 pg/10^5 and 54.4 pg/10^5
same,Concentration,IL-1 alpha; [4],361.3 pg/mL
same,conc/live cell,IL-1 alpha; [4],62.4 pg/10^5
same,Concentration,IL-1 alpha; [5],332.4 pg/mL and 312.9 pg/mL and 347.3 pg/mL
same,conc/live cell,IL-1 alpha; [5],50.4 pg/10^5 and 62.6 pg/10^5 and 60.9 pg/10^5
same,Concentration,IL-1 alpha; [6],330.9 pg/mL
same,conc/live cell,IL-1 alpha; [6],58.0 pg/10^5
same,Concentration,IL-1 alpha; [7],349.2 pg/mL and 321.1 pg/mL and 345.8 pg/mL
same,conc/live cell,IL-1 alpha; [7],63.5 pg/10^5 and 66.9 pg/10^5 and 72.0 pg/10^5
same,Concentration,IL-1 alpha; [8],338.7 pg/mL
same,conc/live cell,IL-1 alpha; [8],67.5 pg/10^5
same,Concentration,IL-1 alpha; [9],356.2 pg/mL and 327.9 pg/mL and 345.8 pg/mL
same,conc/live cell,IL-1 alpha; [9],66.0 pg/10^5 and 56.5 pg/10^5 and 73.6 pg/10^5
same,Concentration,IL-1 alpha; [10],343.3 pg/mL
same,conc/live cell,IL-1 alpha; [10],65.4 pg/10^5
same,Concentration,IL-1 alpha; [11],446.4 pg/mL and 402.2 pg/mL and 436.1 pg/mL
same,conc/live cell,IL-1 alpha; [11],73.2 pg/10^5 and 65.9 pg/10^5 and 72.7 pg/10^5
same,Concentration,IL-1 alpha; [12],428.2 pg/mL
same,conc/live cell,IL-1 alpha; [12],70.6 pg/10^5
